# Reference: patent publication US20230146795A1, “ENHANCEMENT OF ANTI-TUMOR ACTIVITY OF SHP2 INHIBITOR PYRIMIDINONE IN COMBINATION WITH NOVEL CANCER MEDICINES IN CANCERS” (TAIHO PHARMACEUTICAL CO., LTD., priority 2020, published 2023)
# How the values were obtained:
# SHP2 = molecular target: T1, SHP2 (Homo sapiens, UniProt Q06124); experiment: SHP2 biochemical assay (DiFMUP conversion); settings: 10 pM SHP2, 0.25 μM pIRS1 peptide, 50 μM DiFMUP
# T1 sequence (Q06124 1-593): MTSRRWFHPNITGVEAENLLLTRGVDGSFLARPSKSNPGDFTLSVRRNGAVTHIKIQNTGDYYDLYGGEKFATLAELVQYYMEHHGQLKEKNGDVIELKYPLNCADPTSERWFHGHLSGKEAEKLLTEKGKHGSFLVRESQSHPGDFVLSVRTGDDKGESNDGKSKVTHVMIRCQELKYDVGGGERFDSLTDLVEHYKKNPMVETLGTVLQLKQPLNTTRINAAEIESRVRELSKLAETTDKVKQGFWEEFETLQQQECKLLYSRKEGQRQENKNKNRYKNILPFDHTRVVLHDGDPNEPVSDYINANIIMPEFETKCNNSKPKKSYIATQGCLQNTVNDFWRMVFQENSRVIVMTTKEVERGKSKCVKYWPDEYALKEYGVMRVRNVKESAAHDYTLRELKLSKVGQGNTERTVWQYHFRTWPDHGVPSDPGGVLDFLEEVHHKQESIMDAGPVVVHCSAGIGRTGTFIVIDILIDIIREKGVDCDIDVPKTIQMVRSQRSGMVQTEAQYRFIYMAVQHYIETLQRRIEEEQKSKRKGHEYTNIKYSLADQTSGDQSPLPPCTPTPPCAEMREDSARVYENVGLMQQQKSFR
# Procedure: (1) SHP2 Biochemical Assay SHP2 Activity was Monitored by Measuring the Conversion of the Surrogate Substrate 6,8-Difluoromethylumbelliferyl Phosphate (DiEMUP) to the Fluorescent Product, 6,8-Difluoromethylumbelliferone (DiFMU).
# SHP2 was pre-incubated with test compounds and the activating peptide pIRS1 (H2N-LN(pY) IDLDLV-(PEG) 8-LST(pY)ASINFQK-amide) for 30 min, prior to addition of the 6,8-difluoromethylumbelliferyl phosphate (DiEMUP), (Thermo Fisher D6567). Final assay concentrations were 10 pM SHP2, 0.25 μM pIRS1 peptide, 50 μM DiFMUP, 25 mM Bis-Tris propane, pH 7.0, 150 mM NaCl, 0.05% (v/v) Tween-20, 0.5 mM TCEP and 5% (v/v) DMSO. Rates of reaction were then measured over 30 min by monitoring fluorescence on a BMG Pherastar reader at excitation 360 nm/emission 450 nm. IC50 values were calculated in singlicate from the normalized dose-response plots using four parameter logistic curve fit. The Experiment for each compound was carried out in one time or multiple times, and the IC50 values were shown as a single value (for a compound measured in a single experiment) or an average value (for a compound measured in multiple experiments).
# NCI-H23 = experiment: Anti-proliferation assay (CellTiter-Glo 2.0), combination index, NCI-H23; assay type: cell-based
# Procedure: (§1) Cell lines were obtained from ATCC or Health Science Research Resources Bank.
# Each cell lines were collected by ordinary method, then suspended in indicated medium containing 10% fetal bovine serum in table 3. The number of cells seeded per well was set to 500 cells/20 μL. […] The concentration of each anti-cancer reagents set to 8 concentrations including 0 nM. After adding the medicine to the cells, the cells were further incubated at 37° C. for 3 days under 5% CO2. Cell survival rates were calculated by adding 20 μL of CellTiter-Glo(registered trademark) 2. 0 (Promega) solution to each well, incubating the cells at room temperature for 10 minutes, and then measuring the chemiluminescence intensity of each well using a plate reader (ARVO).
# (§2) A combination index (CI) value at each combined concentration of the medicines was determined.
# RMG-I = experiment: Anti-proliferation assay (CellTiter-Glo 2.0), combination index, RMG-I; assay type: cell-based
# Procedure: as §1
# (§3) 384 well culture plate (781086, Greiner Bio-One International) was used for cell survival rate measurement assay. Each cell lines were collected by ordinary method, then suspended in indicated medium containing 10% fetal bovine serum in table 3. The number of cells seeded per well was set to 500 cells/20 μL. After incubation at 37° C. for 24 hours under 5% CO2, Compound 1 and additional compound having an antitumor effect or a vehicle (DMSO) was added to each well by using D300e Digital Dispenser (Tecan). The concentration of Compound 1 was set to 10 concentrations. The concentration of each anti-cancer reagents set to 8 concentrations including 0 nM. After adding the medicine to the cells, the cells were further incubated at 37° C. for 3 days under 5% CO2. Cell survival rates were calculated by adding 20 μL of CellTiter-Glo(registered trademark) 2. 0 (Promega) solution to each well, incubating the cells at room temperature for 10 minutes, and then measuring the chemiluminescence intensity of each well using a plate reader (ARVO).
# as §2
# MV-4-11 = experiment: Anti-proliferation assay (CellTiter-Glo 2.0), combination index, MV-4-11; assay type: cell-based
# Procedure: as §1, §3, §2
# NCI-H358 = experiment: Anti-proliferation assay (CellTiter-Glo 2.0), combination index, NCI-H358; assay type: cell-based
# Outline: (§4)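 Cells were seeded at 500 cells/well in medium with 10% FBS and exposed to agents at 8 concentrations including 0 nM, for 3 days at 37° C under 5% CO2. Survival was read by CellTiter-Glo 2.0 luminescence, and combination index was determined at each combined concentration.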
# MKN45 = experiment: Anti-proliferation assay (CellTiter-Glo 2.0), combination index, MKN45; assay type: cell-based
# Outline: as §4
# [1] = Compound 1 41.2 + combination drug 123 nmol/L (1:3)
# [2] = Compound 1 123 + combination drug 370 nmol/L (1:3)
# [3] = Compound 1 370 + combination drug 1110 nmol/L (1:3)
# [4] = Compound 1 1110 + combination drug 3330 nmol/L (1:3)
# [5] = Compound 1 3330 + combination drug 10000 nmol/L (1:3)
# [6] = Compound 1 1.52 + combination drug 123 nmol/L (1:81)
# [7] = Compound 1 4.57 + combination drug 370 nmol/L (1:81)
# [8] = Compound 1 13.7 + combination drug 1110 nmol/L (1:81)
# [9] = Compound 1 41.2 + combination drug 3330 nmol/L (1:81)
# [10] = Compound 1 123 + combination drug 10000 nmol/L (1:81)
# [11] = Compound 1 1.52 + combination drug 41.2 nmol/L (1:27)
# [12] = Compound 1 4.57 + combination drug 123 nmol/L (1:27)
# [13] = Compound 1 13.7 + combination drug 370 nmol/L (1:27)
# [14] = Compound 1 41.2 + combination drug 1110 nmol/L (1:27)
# [15] = Compound 1 123 + combination drug 3330 nmol/L (1:27)
# [16] = Compound 1 370 + combination drug 10000 nmol/L (1:27)
structure (smiles),measurement,setting,value
"Cn1nc2ccc(-c3c[nH]c4nc(N5[C@H]6CC[C@@H]5[C@H](N)C6)n(C)c(=O)c34)c(F)c2c1Cl [Compound 6, 2-((1R,2R,4S)-2-amino-7-azabicyclo[2.2.1]heptan-7-yl)-5-(3-chloro-4-fluoro-2-methyl-2H-indazol-5-yl)-3-methyl-3,7-dihydro-4H-pyrrolo[2,3-d]pyrimidin-4-one]",IC50,SHP2,2.8 nM
"Cn1cc2c(Cl)c(-c3c[nH]c4nc(N5C[C@H]6CC[C@@H]5[C@@H]6N)n(C)c(=O)c34)ccc2n1 [Compound 4, 2-((1R,4R,7R)-7-amino-2-azabicyclo[2.2.1]heptan-2-yl)-5-(4-chloro-2-methyl-2H-indazol-5-yl)-3-methyl-3,7-dihydro-4H-pyrrolo[2,3-d]pyrimidin-4-one]",IC50,SHP2,3.7 nM
"Cn1nc2ccc(-c3n[nH]c4nc(N5C[C@H]6CC[C@@H]5[C@@H]6N)n(C)c(=O)c34)c(Cl)c2c1Cl [Compound 2, 6-((1R,4R,7R)-7-amino-2-azabicyclo[2.2.1]heptan-2-yl)-3-(3,4-dichloro-2-methyl-2H-indazol-5-yl)-5-methyl-1,5-dihydro-4H-pyrazolo[3,4-d]pyrimidin-4-one]",IC50,SHP2,2.6 nM
"Cn1nc2ccc(-c3c[nH]c4nc(N5C[C@H]6CC[C@@H]5[C@@H]6N)n(C)c(=O)c34)c(Cl)c2c1Cl [Compound 5, 2-((1R,4R,7R)-7-amino-2-azabicyclo[2.2.1]heptan-2-yl)-5-(3,4-dichloro-2-methyl-2H-indazol-5-yl)-3-methyl-3,7-dihydro-4H-pyrrolo[2,3-d]pyrimidin-4-one]",IC50,SHP2,1.5 nM
"CCn1cc2c(Cl)c(-c3c[nH]c4nc(N5[C@H]6CC[C@@H]5[C@H](N)C6)n(C)c(=O)c34)ccc2n1 [Compound 7, 2-((1R,2R,4S)-2-amino-7-azabicyclo[2.2.1]heptan-7-yl)-5-(4-chloro-2-ethyl-2H-indazol-5-yl)-3-methyl-3,7-dihydro-4H-pyrrolo[2,3-d]pyrimidin-4-one]",IC50,SHP2,3.3 nM
"NC1(c2ccc(-c3nc4ccn5c(=O)[nH]nc5c4cc3-c3ccccc3)cc2)CCC1 [MK-2206, 8-[4-(1-aminocyclobutyl)phenyl]-9-phenyl-1,2,4-triazolo[3,4-f][1,6]naphthyridin-3(2H)-one]",CI,NCI-H23; [1],0.783
same,Fa,NCI-H23; [1],0.1015
same,CI,NCI-H23; [2],0.265
same,Fa,NCI-H23; [2],0.2110
same,CI,NCI-H23; [3],0.232
same,Fa,NCI-H23; [3],0.3486
same,CI,NCI-H23; [4],0.295
same,Fa,NCI-H23; [4],0.5074
same,CI,NCI-H23; [5],0.340
same,Fa,NCI-H23; [5],0.7061
same,CI,RMG-I; [6],0.724
same,Fa,RMG-I; [6],0.1204
same,CI,RMG-I; [7],0.398
same,Fa,RMG-I; [7],0.2545
same,CI,RMG-I; [8],0.314
same,Fa,RMG-I; [8],0.4133
same,CI,RMG-I; [9],0.320
same,Fa,RMG-I; [9],0.5593
same,CI,RMG-I; [10],0.353
same,Fa,RMG-I; [10],0.6868
same,Description (combinatory effect by CI),RMG-I; Compound 1:combination drug molar ratio 1:81,Synergy (0.3-0.7)
same,CI,MV-4-11; [6],0.315
same,Fa,MV-4-11; [6],0.2639
same,CI,MV-4-11; [7],0.520
same,Fa,MV-4-11; [7],0.3899
same,CI,MV-4-11; [8],0.446
same,Fa,MV-4-11; [8],0.6851
same,CI,MV-4-11; [9],0.318
same,Fa,MV-4-11; [9],0.9006
same,CI,MV-4-11; [10],0.137
same,Fa,MV-4-11; [10],0.9846
same,CI,NCI-H358; [2],0.477
same,Fa,NCI-H358; [2],0.2532
same,CI,NCI-H358; [3],0.204
same,Fa,NCI-H358; [3],0.4838
same,CI,NCI-H358; [4],0.301
same,Fa,NCI-H358; [4],0.5761
same,CI,NCI-H358; [5],0.213
same,Fa,NCI-H358; [5],0.7446
same,CI,MKN45; [11],0.315
same,Fa,MKN45; [11],0.1506
same,CI,MKN45; [12],0.564
same,Fa,MKN45; [12],0.1981
same,CI,MKN45; [13],0.408
same,Fa,MKN45; [13],0.3872
same,CI,MKN45; [14],0.383
same,Fa,MKN45; [14],0.5869
same,CI,MKN45; [15],0.420
same,Fa,MKN45; [15],0.7489
same,CI,MKN45; [16],0.608
same,Fa,MKN45; [16],0.8398
same,Description (combinatory effect by CI),MKN45; Compound 1:combination drug molar ratio 1:27,Synergy (0.3-0.7)
